In US8772509B2, “Indole compounds as positive allosteric modulators of the muscarinic receptor” (Vanderbilt University, priority 2010, dated 2014):

Biological target: T1, mAChR M1 (UniProt P08482)
T1 sequence (P08482 1-460): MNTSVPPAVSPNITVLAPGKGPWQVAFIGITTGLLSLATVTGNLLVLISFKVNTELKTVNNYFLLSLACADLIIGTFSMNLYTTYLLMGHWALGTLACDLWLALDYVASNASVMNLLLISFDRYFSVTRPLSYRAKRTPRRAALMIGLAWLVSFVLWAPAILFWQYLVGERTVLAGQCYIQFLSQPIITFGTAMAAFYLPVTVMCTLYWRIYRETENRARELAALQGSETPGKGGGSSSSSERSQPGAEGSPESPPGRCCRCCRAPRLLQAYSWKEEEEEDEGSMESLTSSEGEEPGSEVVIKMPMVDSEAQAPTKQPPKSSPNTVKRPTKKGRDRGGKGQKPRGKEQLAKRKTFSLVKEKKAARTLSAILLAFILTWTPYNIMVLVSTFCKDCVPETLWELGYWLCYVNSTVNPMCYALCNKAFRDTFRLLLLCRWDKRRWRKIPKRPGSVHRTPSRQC
Test: mAChR M1 cell-based functional assay (calcium mobilization, Fluo-4, FDSS)
Conditions: for Efficacy (% ACh maximum at 30 μM): maximal calcium flux response from curve fit or response at 30 μM compound, as % of the EC80 ACh response; for EC50: positive allosteric modulation of EC20 acetylcholine response, CHO-K1 cells expressing mAChR M1, read-out: Potency (EC50)
Protocol: Chinese hamster ovary (CHO-K1) cells stably expressing rat (r)M1 were purchased from the American Type Culture Collection and cultured according to their indicated protocol. […] To make stable rM2, hM2, rM3, hM4, and rM4 cell lines for use in calcium mobilization assays, these cells also were stably transfected with a chimeric G-protein (Gqi5) (provided by B. R. Conklin, University of California, San Francisco) using Lipofectamine 2000. rM1, hM1, rM3, hM3, rM5, and hM5 cells were grown in Ham's F-12 medium containing 10% heat-inactivated fetal bovine serum (FBS), 20 mM HEPES, and 50 μg/mL G418 sulfate. rM2-Gqi5, hM2-Gqi5, and hM4-Gqi5 cells were grown in the same medium also containing 500 μg/mL Hygromycin B. Stable rM4-Gqi5 cells were grown in DMEM containing 10% heat-inactivated FBS, 20 mM HEPES, 400 μg/mL G418 sulfate, and 500 μg/mL Hygromycin B.
For high throughput measurement of agonist-evoked increases in intracellular calcium, CHO-K1 cells stably expressing muscarinic receptors were plated in growth medium lacking G418 and hygromycin at 15,000 cells/20 μL/well in Greiner 384-well black-walled, tissue culture (TC)-treated, clear-bottom plates (VWR). Cells were incubated overnight at 37° C. and 5% CO2. […] Compound master plates were formatted in an 11 point CRC format (1:3 dilutions) in 100% DMSO with a starting concentration of 10 mM using the BRAVO liquid handler (Agilent). Test compound CRCs were then transferred to daughter plates (240 nL) using the Echo acoustic plate reformatter (Labcyte, Sunnyvale, Calif.) and then diluted into assay buffer (40 μL) to a 2× stock using a Thermo Fisher Combi (Thermo Fisher Scientific, Waltham, Mass.).
Calcium flux was measured using the Functional Drug Screening System (FDSS) 6000 (Hamamatsu Corporation, Tokyo, Japan) as an increase in the fluorescent static ratio. Compounds were applied to cells (20 μL, 2×) using the automated system of the FDSS 6000 at 4 s into the 300 s protocol and the data were collected at 1 Hz. […] Agonist activity was analyzed as a concentration-dependent increase in calcium mobilization upon compound addition. Positive allosteric modulator activity was analyzed as a concentration-dependent increase in the EC20 acetylcholine response. Antagonist activity was analyzed as a concentration-dependent decrease in the EC80 acetylcholine response. Concentration-response curves were generated using a four-parameter logistical equation in XLfit curve fitting software (IDBS, Bridgewater, N.J.) for Excel (Microsoft, Redmond, Wash.) or Prism (GraphPad Software, Inc., San Diego, Calif.).
The calcium mobilization assay was also used to determine “efficacy”. In the context of the assays carried out for the data in Table I, “efficacy” (% ACh at 30 μM) is defined as the maximal response in the calcium flux as determined by the sigmoidal curve fit of the concentration response curve, or in the absence of an acceptable curve fit, the response recorded at 30 μM test compound, stated as a percentage of the response elicited by a concentration of Ach that induces approximately 80% of a maximal (i.e. saturating) ACh response.

SMILES	Efficacy (% ACh maximum at 30 μM) [%]	EC50 [µM]
Cc1cc(NC(=O)CS(=O)(=O)c2cn(Cc3cccc(Br)c3)c3cc(F)cc(F)c23)no1 [compound 30, 2-((1-(3-bromobenzyl)-4,6-3-yl)sulfonyl)-N-(5-methylisoxazol-3-yl)acetamide]	103	5.37
O=C(CS(=O)(=O)c1cn(Cc2cccc(-c3cncnc3)c2)c2cc(F)cc(F)c12)Nc1ccccn1 [compound 36, 2-((4,6-difluoro-1-(3-(pyrimidin-5-yl)benzyl)-1H-indol-3-yl)sulfonyl)-N-(pyridin-2-yl)acetamide]	45	> 10
Cc1cc(NC(=O)CS(=O)(=O)c2cn(Cc3ccccc3F)c3ccccc23)no1 [compound 43, 2-{1-[(2-fluorophenyl)methyl]-1H-indole-3-sulfonyl}-N-(5-methyl-1,2-oxazol-3-yl)acetamide]		> 10
O=C(CS(=O)(=O)c1cn(Cc2cccc(-c3ccnc(F)c3)c2)c2cc(F)cc(F)c12)Nc1ccccn1 [compound 20, 2-((4,6-difluoro-1-(3-(2-fluoropyridin-4-yl)benzyl)-1H-indol-3-yl)sulfonyl)-N-(pyridin-2-yl)acetamide]	36	3.5
Cc1cc(NC(=O)CSc2cn(Cc3cccc(Br)c3)c3ccccc23)no1 [compound 51, 2-({1-[(3-bromphenyl)methyl]-1H-indol-3-yl}sulfanyl)-N-(5-methyl-1,2-oxazol-3-yl)acetamide]		> 10
Cc1cc(NC(=O)CS(=O)(=O)c2cn(Cc3cccc(Cl)c3F)c3ccccc23)no1 [compound 26, 2-((1-(3-chloro-2-fluorobenzyl)-1H-indol-3-yl)sulfonyl)-N-(5-methylisoxazol-3-yl)acetamide]	56	5.1
Cc1cc(NC(=O)CS(=O)(=O)c2cn(Cc3cccc(C#N)c3)c3ccccc23)no1 [compound 45, 2-{1-[(3-cyanophenyl)methyl]-1H-indole-3-sulfonyl}-N-(5-methyl-1,2-oxazol-3-yl)acetamide]		> 10
Cc1cc(NC(=O)C(Cc2ccccc2F)S(=O)(=O)c2cn(Cc3ccccc3F)c3ccccc23)no1 (centres unmarked) [compound 66, 3-(2-fluorophenyl)-2-{1-[(2-fluorophenyl)methyl]-1H-indole-3-sulfonyl}-N-(5-methyl-1,2-oxazol-3-yl)propanamide]		> 10
Cc1cc(NC(=O)CS(=O)(=O)c2cn(Cc3ccc(F)c(Cl)c3)c3ccccc23)no1 [compound 52, 2-{1-[(3-chloro-4-fluorophenyl)methyl]-1H-indole-3-sulfonyl}-N-(5-methyl-1,2-oxazol-3-yl)acetamide]		> 10
Cc1cc(NC(=O)CS(=O)(=O)c2cn(Cc3cccc(-c4ccccc4)c3)c3ccccc23)no1 [compound 56, N-(5-methyl-1,2-oxazol-3-yl)-2-{1-[(3-phenylphenyl)methyl]-1H-indole-3-sulfonyl}acetamide]		> 10
O=C(CS(=O)(=O)c1cn(Cc2cccc(Br)c2)c2cc(F)cc(F)c12)Nc1nc2ccccc2o1 [compound 9, N-(benzo[d]oxazol-2-yl)-2-((1-(3-bromobenzyl)-4,6-difluoro-1H-indol-3-yl)sulfonyl)acetamide]	44	2.5
Cc1cc(NC(=O)CS(=O)(=O)c2cn(Cc3ccc4c(c3)OCO4)c3ccccc23)no1 [compound 50, 2-[1-(2H-1,3-benzodioxol-5-ylmethyl)-1H-indole-3-sulfonyl]-N-(5-methyl-1,2-oxazol-3-yl)acetamide]		> 10
Cc1cc(NC(=O)CS(=O)(=O)c2cn(Cc3cccc(F)c3)c3ccccc23)no1 [compound 28, 2-((1-(3-fluorobenzyl)-1H-indol-3-yl)sulfonyl)-N-(5-methylisoxazol-3-yl)acetamide]		5.22
O=C(CS(=O)(=O)c1cn(Cc2ccccc2)c2cc(F)cc(F)c12)Nc1ccccn1 [compound 1, 2-((1-benzyl-4,6-difluoro-1H-indol-3-yl)sulfonyl)-N-(pyridin-2-yl)acetamide]	59	0.99
Cc1cc(NC(=O)CS(=O)(=O)c2cn(Cc3cccc(-c4ccc(N5CCNCC5)nc4)c3)c3ccccc23)no1 [compound 70, N-(5-methyl-1,2-oxazol-3-yl)-2-[1-({3-[6-(piperazin-1-yl)pyridin-3-yl]phenyl}methyl)-1H-indole-3-sulfonyl]acetamide]		> 10
Cc1cc(NC(=O)C(C)S(=O)(=O)c2cn(Cc3cc(Br)ccc3F)c3ccccc23)no1 (centres unmarked) [compound 63, 2-{1-[(5-bromo-2-fluorophenyl)methyl]-1H-indole-3-sulfonyl}-N-(5-methyl-1,2-oxazol-3-yl)propanamide]		> 10
Cc1cc(NC(=O)CS(=O)(=O)c2cn(Cc3cccc(Cl)c3)c3ccccc23)no1 [compound 32, 2-((1-(3-chlorobenzyl)-1H-indol-3-yl)sulfonyl)-N-(5-methylisoxazol-3-yl)acetamide]	96	5.82
Cc1cc(NC(=O)C(C)S(=O)(=O)c2cn(Cc3cc(Br)cc(Br)c3)c3ccccc23)no1 (centres unmarked) [compound 73, 2-{1-[(3,5-dibromophenyl)methyl]-1H-indole-3-sulfonyl}-N-(5-methyl-1,2-oxazol-3-yl)propanamide]		> 10
Cc1cc(NC(=O)CS(=O)(=O)c2cn(Cc3cccc(-c4cn[nH]c4)c3)c3cc(F)cc(F)c23)no1 [compound 4, 2-((1-(3-(1H-pyrazol-4-yl)benzyl)-4,6-difluoro-1H-indol-3-yl)sulfonyl)-N-(5-methylisoxazol-3-yl)acetamide]	102	1.85
O=C(CS(=O)(=O)c1cn(Cc2cccc(Br)c2)c2cc(F)cc(F)c12)Nc1cccnc1 [compound 35, 2-((1-(3-bromobenzyl)-4,6-difluoro-1H-indol-3-yl)sulfonyl)-N-(pyridin-3-yl)acetamide]	42	> 10
COc1ncccc1-c1cccc(Cn2cc(S(=O)(=O)CC(=O)Nc3ccccn3)c3c(F)cc(F)cc32)c1 [compound 40, 2-((4,6-difluoro-1-(3-(2-methoxypyridin-3-yl)benzyl)-1H-indol-3-yl)sulfonyl)-N-(pyridin-2-yl)acetamide]	37	> 10
O=C(CS(=O)(=O)c1cn(Cc2cccc(-c3ccncc3)c2)c2cc(F)cc(F)c12)Nc1ccccn1 [compound 14, 2-((4,6-difluoro-1-(3-(pyridin-4-yl)benzyl)-1H-indol-3-yl)sulfonyl)-N-(pyridin-2-yl)acetamide]	55	2.9
Cc1cc(NC(=O)CSc2c[nH]c3ccccc23)no1 [compound 41, 2-(1H-indol-3-ylsulfanyl)-N-(5-methyl-1,2-oxazol-3-yl)acetamide]		> 10
O=C(CS(=O)(=O)c1cn(Cc2cccc(Br)c2)c2cc(F)cc(F)c12)Nc1cncs1 [compound 38, 2-((1-(3-bromobenzyl)-4,6-difluoro-1H-indol-3-yl)sulfonyl)-N-(thiazol-5-yl)acetamide]	49	> 10
O=C(CS(=O)(=O)c1cn(Cc2cccc(Br)c2)c2cc(F)cc(F)c12)NCc1ccccn1 [compound 39, 2-((1-(3-bromobenzyl)-4,6-difluoro-1H-indol-3-yl)sulfonyl)-N-(pyridin-2-ylmethyl)acetamide]	34	> 10
